Assay results from article PMC6130489, “Caffeic acid methyl and ethyl esters exert potential antidiabetic effects on glucose and lipid metabolism in cultured murine insulin-sensitive cells through mechanisms implicating activation of AMPK” (Pharmaceutical Biology, 2017).

How the values were obtained:
GLUT1 = assay: Western immunoblot GLUT1 protein content in L6 myotubes; type: cell-based, rat; details: 50 μM, 18 h
Protocol: L6 cells myotubes, H4IIE cells and 3T3-L1 adipocytes were treated with either CAME, CAEE (50 μM each) or vehicle (DMSO) for 18 h. Insulin (100 nM) or aminoimidazole carboxamide ribonucleotide (AICAR; 1 mM) were added to some vehicle-treated wells 30 min prior to the end of the treatment and served as the positives controls. Protein content was assayed by the bicinchoninic acid method (Thermo Scientific Pierce Protein Research, Rockford, IL) standardized to bovine serum albumin. Western immunoblotting was performed as described elsewhere (Eid et al. [2010]). […] Immunoreactive bands were visualized by enhanced chemiluminescence and quantified by the Scion Image program (Scion Corporation, Frederick, MD). […]
Figure 1. […] Cells were treated as previously described, cell surface GLUT4myc was detected by an enzyme-linked colorimetric assay. […] Results represent the means ± SEM of three independent experiments, and 3-4 cells were analyzed for each condition per experiment. *Indicates a significant (p ≤ 0.05) difference, **(p < 0.01) from the vehicle control group as assessed by ANOVA. […] Data are expressed as (D) phospho-AMPK/β-actin, (E) GLUT4/β-actin and (F) GLUT1/β-actin and are given as mean ± SEM from 3 experiments. *p < 0.05 indicates a significant difference, **(p < 0.01) from the vehicle control group.

3T3-L1 pre-adipocytes = assay: Thymidine incorporation assay (mitotic clonal expansion); type: cell-based; details: Mus musculus, 3T3-L1 cells undergoing mitotic clonal expansion; for IC50: read-out: thymidine incorporation inhibition IC50
Protocol: To assess for the inhibitory activity of CAME and CAEE on and mitotic clonal expansion of 3T3-L1 adipocytes, cells were separately treated with 12.5, 25, 50 and 100 μM of CAME or CAEE for […] in differentiation media and the incorporation of radio-labeled methyl-^3H-thymidine (MP Biomedicals cat #240410, Irvine, CA) into the newly replicated DNA was measured as described elsewhere (Martineau et al. [2010]). The incorporated radioactivity was measured in a liquid scintillation counter (LKB Wallac 1219 Rackbeta; Perkin Elmer Life and Analytical Sciences, Inc., Boston, MA).
Figure 3. (A and B) Anti-adipogenic effect of CAME and CAEE in 3T3-L1 adipocytes. Cells were treated with several concentrations (12.5, 25, 50 and100 μM) of either CAME or CAEE in DMEM containing 10% FBS and the standard adipogenic cocktail (500 μM 3-isobutyl-1-methylxanthine, 500 nM insulin and 10 μM dexamethasone) for 2 days then in DMEM containing 10% FBS and 500 nM insulin starting from days 2-8 of differentiation. This medium was changed every 2 days. (A) On day 8, lipid content was measured by AdipoRed assay. Results represent the means ± SEM of three independent experiments. *Indicates a significant (p ≤ 0.05) difference, **(p < 0.01), ***(p < 0.001) from the vehicle control group. […] Vehicle-treated cells show the presence of lipid droplets. On the other hand, cells treated with the maximum nontoxic concentration (100 μM) of either CAME or CAEE retained the fibroblast-like morphology of pre-adipocytes and were devoid of lipid droplets. (C) CAME and CAEE inhibit pre-adipocyte clonal expansion. Confluent 3T3-L1 pre-adipocytes undergoing clonal expansion in response to differentiation cues were treated with vehicle or 12.5, 25, 50 and 100 μM of either CAME or CAEE for 20 h and incorporation of ^3H-labeled thymidine was measured. Normalized data are presented as mean ± SEM of three independent experiments. **Indicates a significant (p ≤ 0.01) difference, ***(p < 0.001) from the vehicle control group.

Akt = assay: Western immunoblot phospho-Akt in 3T3-L1 adipocytes; type: cell-based, mouse; details: 100 μM (Figure 4 legend)
Protocol: Insulin (100 nM) or aminoimidazole carboxamide ribonucleotide (AICAR; 1 mM) were added to some vehicle-treated wells 30 min prior to the end of the treatment and served as the positives controls. Protein content was assayed by the bicinchoninic acid method (Thermo Scientific Pierce Protein Research, Rockford, IL) standardized to bovine serum albumin. Western immunoblotting was performed as described elsewhere (Eid et al. [2010]). Membranes were incubated overnight with phospho-AMPK, phospho-Akt, GLUT4, GLUT1 and β-actin antibodies (1:1000 dilution, Cell Signalling Technology, Danvers, MA), or with PPAR-γ, SREBP-1 (1:200, Santa Cruze Biotechnology, Santa Cruz, CA), followed by incubation with HRP-coupled secondary antibody (1:10,000) for 1 h. Immunoreactive bands were visualized by enhanced chemiluminescence and quantified by the Scion Image program (Scion Corporation, Frederick, MD). Experiments were repeated on 3 different passages of cells, each passage containing all conditions in parallel.
Figure 4. CAME and CAEE inhibit C/EBP-β and PPAR-γ protein expression through mechanisms implicating AMPK pathway. Shown are representative blots of 3T3-adipocytes treated with the maximum nontoxic concentration (100 μM) of either CAME or CAEE. […] Data are expressed as C/EBP-β/β-actin (D), PPAR-γ/β-actin (E), phospho-Akt/pan-Akt (F) and phospho-AMPK/pan-AMPK (G). […]

Compound	effect on GLUT1 protein levels (GLUT1)	IC50 (3T3-L1 pre-adipocytes) [µM]	inhibition at 100 µM (3T3-L1 pre-adipocytes) [%]	Akt phosphorylation (Akt)
CCOC(=O)/C=C/c1ccc(O)c(O)c1 [CAEE, caffeic acid ethyl ester]	no effect	13.1	86.9 ± 3	did not modulate
COC(=O)/C=C/c1ccc(O)c(O)c1 [CAME, CA methyl ester]	no effect	39.4	92.7 ± 2.6	did not modulate
